Measurements: ChEMBL document CHEMBL1122067, “Species- or isozyme-specific enzyme inhibitors. 4. Design of a two-site inhibitor of adenylate kinase with isozyme selectivity” (J Med Chem, 1982)

Columns and labels:
[1] = Inhibitory constant of rat adenylate kinase (AK) isozymes expressed as relative maximal velocity
[2] = Concentration for half-maximal velocity for adenylate kinase (AK) was determined
[3] = Inhibitory constant of rat adenylate kinase(AK) isozymes and maximal velocity was determined
[4] = test system: O=C(CI)NCCCCCNc1ncnc2c1ncn2C1O[C@H](COP(=O)(O)OP(=O)(O)OP(=O)(O)O)[C@@H](O)[C@H]1O; assay: (§1) Concentration for half-maximal velocity for adenylate kinase (AK II) was determined
[5] = test system: CCCCNc1ncnc2c1ncn2C1O[C@H](COP(=O)(O)OP(=O)(O)OP(=O)(O)O)[C@@H](O)[C@H]1O; assay: as §1
[6] = test system: Nc1ncnc2c1ncn2[C@@H]1O[C@H](COP(=O)(O)O)[C@@H](O)[C@H]1O; assay: as §1
[7] = test system: O=C(CI)NCCCCCNc1ncnc2c1ncn2C1O[C@H](COP(=O)(O)OP(=O)(O)OP(=O)(O)O)[C@@H](O)[C@H]1O; assay: (§2) Inhibitory constant of rat adenylate kinase (AK II) isozymes expressed as relative maximal velocity
[8] = test system: CC(=O)NCCNc1ncnc2c1ncn2C1O[C@H](COP(=O)(O)O)[C@@H](O)[C@H]1O; assay: as §2
[9] = test system: CCSc1nc2c(N)ncnc2n1[C@@H]1O[C@H](COP(=O)(O)O)[C@@H](O)[C@H]1O; assay: as §2
[10] = test system: CC(=O)NCCCCCCCCNc1ncnc2c1ncn2C1O[C@H](COP(=O)(O)O)[C@@H](O)[C@H]1O; assay: as §2
[11] = test system: CCCCNc1ncnc2c1ncn2C1O[C@H](COP(=O)(O)OP(=O)(O)OP(=O)(O)O)[C@@H](O)[C@H]1O; assay: as §2
[12] = test system: Nc1ncnc2c1ncn2[C@@H]1O[C@H](COP(=O)(O)O)[C@@H](O)[C@H]1O; assay: as §2

**Q.** What does the source list for CCCCSc1ncnc2c1ncn2C1O[C@H](COP(=O)(O)OP(=O)(O)OP(=O)(O)O)[C@@H](O)[C@H]1O (stereo partly specified)?
**A.** Vmax [1]: 192%; Km [2]: 4000 µM

**Q.** What does the source list for Nc1ncnc2c1ncn2[C@@H]1O[C@H](COP(=O)(O)OP(=O)(O)OP(=O)(O)O)[C@@H](O)[C@H]1O?
**A.** Vmax [1]: 100%; Km [2]: 570 µM

**Q.** With CCCSc1nc2c(N)ncnc2n1[C@@H]1O[C@H](COP(=O)(O)OP(=O)(O)OP(=O)(O)O)[C@@H](O)[C@H]1O as the compound, how does the Vmax [1] read?
**A.** Its Vmax is 0%.

**Q.** For CCCCN(CCCC)c1ncnc2c1ncn2C1O[C@H](COP(=O)(O)OP(=O)(O)OP(=O)(O)O)[C@@H](O)[C@H]1O (stereo partly specified), which Vmax [1] is on record?
**A.** The Vmax was 0%.

**Q.** Which Vmax [1] does the source give for O=C(CI)NCCCCCNc1ncnc2c1ncn2C1O[C@H](COP(=O)(O)OP(=O)(O)OP(=O)(O)O)[C@@H](O)[C@H]1O (stereo partly specified) here?
**A.** The Vmax was 0%.

**Q.** With CC(=O)NCCNc1ncnc2c1ncn2C1O[C@H](COP(=O)(O)O)[C@@H](O)[C@H]1O (stereo partly specified) as the compound, how does the Vmax [3] read?
**A.** The Vmax was 0%.

**Q.** Which results are given for “Adenylate kinase 2, mitochondrial (Rattus norvegicus) (from UniProt P29410)”?
**A.** Km [4]: 1000 µM; Km [5]: 1400 µM; Km [6]: 90 µM; Vmax [7]: 21%; Vmax [8]: 0%; Vmax [9]: 0%; Vmax [10]: 0%; Vmax [11]: 13%; Vmax [12]: 100%

**Q.** With Nc1ncnc2c1nc(Sc1ccccc1)n2[C@@H]1O[C@H](COP(=O)(O)OP(=O)(O)OP(=O)(O)O)[C@@H](O)[C@H]1O as the compound, how does the Vmax [1] read?
**A.** The Vmax was 0%.

**Q.** With CC(=O)NCCCCCCCCNc1ncnc2c1ncn2C1O[C@H](COP(=O)(O)O)[C@@H](O)[C@H]1O (stereo partly specified) as the compound, how does the Vmax [1] read?
**A.** The Vmax was 0%.

**Q.** Which results are given for CCCCNc1ncnc2c1ncn2C1O[C@H](COP(=O)(O)OP(=O)(O)OP(=O)(O)O)[C@@H](O)[C@H]1O (stereo partly specified)?
**A.** Vmax [1]: 86%; Km [2]: 2800 µM
